{"source": "patent US7795456B2", "about": "“Insecticidal N-substituted sulfoximines” (Dow AgroSciences LLC, priority 2004, dated 2010)", "key": {"[1]": {"tested_on": "beet armyworm (Spodoptera exigua)", "conditions": "50 μg/cm2, second-instar larvae, 5 days"}, "[2]": {"tested_on": "corn earworm (Helicoverpa zea)", "conditions": "50 μg/cm2, second-instar larvae, 5 days"}, "[3]": {"tested_on": "yellow fever mosquito (Aedes aegypti) larvae", "experiment": "whole plant or invertebrate", "type": "in vivo", "conditions": "72 h, read-out: YFM 26: % control at 26 ppm against yellow fever mosquito in submerge tests"}, "[4]": {"tested_on": "cotton aphid (Aphis gossypii)", "experiment": "Insecticidal test for cotton aphid, foliar spray on squash", "conditions": "for pest or weed control at 50 ppm / pest or weed control at 200 ppm: Aphis gossypii, foliar, 72 h; for pest or weed control at 50 ppm: read-out: CA 50: % control at 50 ppm against cotton aphid in foliar spray tests; for pest or weed control at 200 ppm: read-out: CA 200: % control at 200 ppm against cotton aphid in foliar spray tests"}, "[5]": {"tested_on": "fruit fly (Drosophila melanogaster)", "conditions": "for FF 25: % mortality at 25 μg/cm2 against fruit fly in dietary tests: 25 μg/cm2, 48 h; for FF SYM: % showing intoxicated symptoms at 25 μg/cm2 against fruit fly in dietary tests: 25 μg/cm2, 4 h"}, "[6]": {"tested_on": "beet armyworm (Spodoptera exigua)", "experiment": "Insecticidal test for beet armyworm in injection assays", "conditions": "1 h, read-out: BAW SYM: % showing intoxicated symptoms at 10 μg/larva against beet armyworm in injection tests"}, "[7]": {"tested_on": "sweet potato whitefly (Bemisia tabaci)", "experiment": "Insecticidal test for sweet potato whitefly, foliar spray on cotton", "conditions": "Bemisia tabaci, in Gossypium hirsutum, foliar, read-out: SPW 200: % control at 200 ppm against sweet potato whitefly in foliar spray tests"}, "[8]": {"tested_on": "green peach aphid (Myzus persicae)", "experiment": "Insecticidal test for green peach aphid, foliar spray on cabbage seedlings", "conditions": "rundown assay, 3 days"}}, "data": [{"smiles": "CS(=O)(=NC#N)C(Cc1ccccc1)c1ccc(Cl)nc1", "note": "(stereo not drawn) [Compound 27]", "values": [{"measurement": "BAW 50: % mortality at 50 μg/cm2 against beet armyworm in dietary tests", "setting": "[1]", "value": "G (Inactive)"}, {"measurement": "CEW 50: % mortality at 50 μg/cm2 against corn earworm in dietary tests", "setting": "[2]", "value": "G (Inactive)"}, {"measurement": "pest or weed control at 26 ppm", "setting": "[3]", "value": "80 to 89", "unit": "%"}, {"measurement": "pest or weed control at 50 ppm", "setting": "[4]", "value": "90 to 100", "unit": "%"}, {"measurement": "pest or weed control at 200 ppm", "setting": "[4]", "value": "90 to 100", "unit": "%"}, {"measurement": "FF 25: % mortality at 25 μg/cm2 against fruit fly in dietary tests", "setting": "[5]", "value": "G (Inactive)"}]}, {"smiles": "CS(=O)(CCc1ccc(Cl)nc1)=NC#N", "note": "(stereo not drawn) [Compound 13]", "values": [{"measurement": "pest or weed control at 0.01 mg", "setting": "[6]", "value": "< 50", "unit": "%"}, {"measurement": "BAW 50: % mortality at 50 μg/cm2 against beet armyworm in dietary tests", "setting": "[1]", "value": "G (Inactive)"}, {"measurement": "CEW 50: % mortality at 50 μg/cm2 against corn earworm in dietary tests", "setting": "[2]", "value": "G (Inactive)"}, {"measurement": "pest or weed control at 200 ppm", "setting": "[7]", "value": "90 to 100", "unit": "%"}, {"measurement": "% Control at ppm, against cotton aphid: 0.195", "setting": "[4]; 0.195 ppm, rundown assay", "value": "F (Less than 50)"}, {"measurement": "% Control at ppm, against cotton aphid: 0.78", "setting": "[4]; 0.78 ppm, rundown assay", "value": "A (90-100)"}, {"measurement": "% Control at ppm, against cotton aphid: 3.12", "setting": "[4]; 3.12 ppm, rundown assay", "value": "A (90-100)"}, {"measurement": "% Control at ppm, against cotton aphid: 12.5", "setting": "[4]; 12.5 ppm, rundown assay", "value": "A (90-100)"}, {"measurement": "% Control at ppm, against cotton aphid: 50", "setting": "[4]; 50 ppm, rundown assay", "value": "A (90-100)"}, {"measurement": "pest or weed control at 50 ppm", "setting": "[4]", "value": "90 to 100", "unit": "%"}, {"measurement": "pest or weed control at 200 ppm", "setting": "[4]", "value": "90 to 100", "unit": "%"}, {"measurement": "% Control at ppm, against green peach aphid: 0.78", "setting": "[8]; 0.78 ppm", "value": "F (Less than 50)"}, {"measurement": "% Control at ppm, against green peach aphid: 3.12", "setting": "[8]; 3.12 ppm", "value": "C (70-79)"}, {"measurement": "% Control at ppm, against green peach aphid: 12.5", "setting": "[8]; 12.5 ppm", "value": "C (70-79)"}, {"measurement": "% Control at ppm, against green peach aphid: 50", "setting": "[8]; 50 ppm", "value": "B (80-89)"}, {"measurement": "FF 25: % mortality at 25 μg/cm2 against fruit fly in dietary tests", "setting": "[5]", "value": "G (Inactive)"}]}, {"smiles": "CS(=O)(=NC#N)C(Br)c1ccc(Cl)nc1", "note": "(stereo not drawn) [Compound 24]", "values": [{"measurement": "pest or weed control at 0.01 mg", "setting": "[6]", "value": "< 50", "unit": "%"}, {"measurement": "BAW 50: % mortality at 50 μg/cm2 against beet armyworm in dietary tests", "setting": "[1]", "value": "G (Inactive)"}, {"measurement": "CEW 50: % mortality at 50 μg/cm2 against corn earworm in dietary tests", "setting": "[2]", "value": "G (Inactive)"}, {"measurement": "pest or weed control at 26 ppm", "setting": "[3]", "value": "90 to 100", "unit": "%"}, {"measurement": "pest or weed control at 50 ppm", "setting": "[4]", "value": "90 to 100", "unit": "%"}, {"measurement": "pest or weed control at 200 ppm", "setting": "[4]", "value": "90 to 100", "unit": "%"}, {"measurement": "FF SYM: % showing intoxicated symptoms at 25 μg/cm2 against fruit fly in dietary tests", "setting": "[5]", "value": "F (Less than 50)"}, {"measurement": "FF 25: % mortality at 25 μg/cm2 against fruit fly in dietary tests", "setting": "[5]", "value": "A (90-100)"}]}, {"smiles": "N#CN=S1(=O)CCCC1Cc1ccc(Cl)nc1", "note": "(stereo not drawn) [Compound 14]", "values": [{"measurement": "BAW 50: % mortality at 50 μg/cm2 against beet armyworm in dietary tests", "setting": "[1]", "value": "G (Inactive)"}, {"measurement": "CEW 50: % mortality at 50 μg/cm2 against corn earworm in dietary tests", "setting": "[2]", "value": "G (Inactive)"}, {"measurement": "pest or weed control at 26 ppm", "setting": "[3]", "value": "90 to 100", "unit": "%"}, {"measurement": "pest or weed control at 50 ppm", "setting": "[4]", "value": "90 to 100", "unit": "%"}, {"measurement": "pest or weed control at 200 ppm", "setting": "[4]", "value": "90 to 100", "unit": "%"}, {"measurement": "FF 25: % mortality at 25 μg/cm2 against fruit fly in dietary tests", "setting": "[5]", "value": "F (Less than 50)"}]}, {"smiles": "N#CN=S1(=O)CCC[C@H]1Cc1ccc(Cl)nc1", "note": "(stereo partly drawn) [Compound 21]", "values": [{"measurement": "BAW 50: % mortality at 50 μg/cm2 against beet armyworm in dietary tests", "setting": "[1]", "value": "G (Inactive)"}, {"measurement": "CEW 50: % mortality at 50 μg/cm2 against corn earworm in dietary tests", "setting": "[2]", "value": "G (Inactive)"}, {"measurement": "pest or weed control at 26 ppm", "setting": "[3]", "value": "80 to 89", "unit": "%"}, {"measurement": "pest or weed control at 50 ppm", "setting": "[4]", "value": "90 to 100", "unit": "%"}, {"measurement": "pest or weed control at 200 ppm", "setting": "[4]", "value": "90 to 100", "unit": "%"}, {"measurement": "FF 25: % mortality at 25 μg/cm2 against fruit fly in dietary tests", "setting": "[5]", "value": "G (Inactive)"}]}, {"smiles": "CS(=O)(=NC#N)C(F)c1ccc(Cl)nc1", "note": "(stereo not drawn) [Compound 25]", "values": [{"measurement": "BAW 50: % mortality at 50 μg/cm2 against beet armyworm in dietary tests", "setting": "[1]", "value": "G (Inactive)"}, {"measurement": "CEW 50: % mortality at 50 μg/cm2 against corn earworm in dietary tests", "setting": "[2]", "value": "G (Inactive)"}, {"measurement": "pest or weed control at 26 ppm", "setting": "[3]", "value": "90 to 100", "unit": "%"}, {"measurement": "pest or weed control at 50 ppm", "setting": "[4]", "value": "90 to 100", "unit": "%"}, {"measurement": "pest or weed control at 200 ppm", "setting": "[4]", "value": "90 to 100", "unit": "%"}, {"measurement": "FF SYM: % showing intoxicated symptoms at 25 μg/cm2 against fruit fly in dietary tests", "setting": "[5]", "value": "B (80-89)"}, {"measurement": "FF 25: % mortality at 25 μg/cm2 against fruit fly in dietary tests", "setting": "[5]", "value": "C (70-79)"}]}, {"smiles": "CCC(c1ccc(Cl)nc1)S(C)(=O)=NC#N", "note": "(stereo not drawn) [Compound 26]", "values": [{"measurement": "pest or weed control at 0.01 mg", "setting": "[6]", "value": "< 50", "unit": "%"}, {"measurement": "BAW 50: % mortality at 50 μg/cm2 against beet armyworm in dietary tests", "setting": "[1]", "value": "G (Inactive)"}, {"measurement": "CEW 50: % mortality at 50 μg/cm2 against corn earworm in dietary tests", "setting": "[2]", "value": "G (Inactive)"}, {"measurement": "pest or weed control at 26 ppm", "setting": "[3]", "value": "90 to 100", "unit": "%"}, {"measurement": "pest or weed control at 50 ppm", "setting": "[4]", "value": "90 to 100", "unit": "%"}, {"measurement": "pest or weed control at 200 ppm", "setting": "[4]", "value": "90 to 100", "unit": "%"}, {"measurement": "FF SYM: % showing intoxicated symptoms at 25 μg/cm2 against fruit fly in dietary tests", "setting": "[5]", "value": "A (90-100)"}, {"measurement": "FF 25: % mortality at 25 μg/cm2 against fruit fly in dietary tests", "setting": "[5]", "value": "A (90-100)"}]}]}
